# Measurements taken from ChEMBL document CHEMBL1151095, “Anti-human immunodeficiency virus type-1 (HIV-1) and anti-hepatitis B virus (HBV) activities of (2,3-dideoxy-2-fluoro--L-threo-pentofuranosyl)nucleosides” (Bioorg Med Chem Lett, 1995).
# pEC50, pIC50: −log10 of the molar value.
# Tests used:
# Homo sapiens [1] = species on record: Homo sapiens; assay: In vitro anti-HBV activity in 2.2.15 cells; type: functional, cell-based; settings: HepG2 2.2.15
# Homo sapiens [2] = species on record: Homo sapiens; assay: Cytotoxicity in 2.2.15 cells; type: functional, cell-based; settings: HepG2 2.2.15
# CCRF-CEM = assay: Cytotoxicity in CEM cells; type: functional, cell-based; settings: Homo sapiens
# [3] = In vitro anti-HIV activity was evaluated in human peripheral blood mononuclear (PBM) cells; type: functional
# [4] = Cytotoxicity in human peripheral blood mononuclear (PBM) cells; type: functional, cell-based
# Vero = assay: Cytotoxicity in Vero cells; type: functional, cell-based; settings: Chlorocebus sabaeus
Structure (SMILES),pEC50 (Homo sapiens [1]),pIC50 (Homo sapiens [2]),pIC50 (CCRF-CEM),pEC50 [3],pIC50 [4],pIC50 (Vero)
Nc1ccn([C@@H]2O[C@H](CO)C[C@@H]2F)c(=O)n1,5.40,< 3.70,< 4.00,4.79,< 4.00,< 4.00
Nc1ncnc2c1ncn2[C@@H]1O[C@H](CO)C[C@@H]1F [LODENOSINE],< 5.00,< 3.70,< 4.00,4.00,< 4.00,< 4.00
Cc1cn([C@H]2C[C@H](N=[N+]=[N-])[C@@H](CO)O2)c(=O)[nH]c1=O [ZIDOVUDINE],,,,8.40,< 4.00,
